Results taken from patent US10131652B2, “Pyrimidinyloxy benzene derivatives as herbicides” (E. I. DU PONT DE NEMOURS AND COMPANY, priority 2014, dated 2018).

Key:
Type in all cases: in vivo
[1] = system: Italian ryegrass (Lolium multiflorum); assay: Test B pre-/postemergence plant response
Outline: (§1)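 Evaluation is visual, about 10 days after application, rating injury from 0 (none) to 100 (complete control) relative to untreated controls. Application was a preemergence soil spray on seeded pots or a postemergence spray on one- to two-leaf plants.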

[2] = system: barnyardgrass (Echinochloa crus-galli); assay: Test B pre-/postemergence plant response
Outline: as §1

corn (Zea mays) = assay: Test B pre-/postemergence plant response
Outline: as §1

[3] = system: giant foxtail (Setaria faberii); assay: Test B pre-/postemergence plant response
Outline: as §1

kochia (Kochia scoparia) = assay: Test B pre-/postemergence plant response
Outline: as §1

[4] = system: pigweed (Amaranthus retroflexus); assay: Test B pre-/postemergence plant response
Outline: as §1

[5] = system: ragweed (common ragweed, Ambrosia elatior); assay: Test B pre-/postemergence plant response
Outline: as §1

[6] = system: wheat (Triticum aestivum); assay: Test B pre-/postemergence plant response
Outline: as §1

[7] = system: blackgrass (Alopecurus myosuroides); assay: Test B postemergence plant response
Outline: (§2)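 Values are visual control ratings (0 to 100) recorded approximately 10 days after postemergence application to greenhouse-grown plants of 2 to 10 cm, one- to two-leaf stage, each judged against untreated controls.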

[8] = system: galium (catchweed bedstraw, Galium aparine); assay: Test B postemergence plant response
Outline: as §2

[9] = system: barnyardgrass (Echinochloa crus-galli); assay: Test C flooded paddy test plant response; conditions: Flood, 250 g ai/ha; scale of 0 to 100 where 0 is no effect and 100 is complete control; 13 to 15 days
Outline: (§3)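 Readout is a visual 0–100 score (100 = complete control) versus controls at 13–15 days. Plants at 2-leaf stage, flooded to 3 cm, treated through paddy water.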

[10] = system: ducksalad (Heteranthera limosa); assay: Test C flooded paddy test plant response; conditions: Flood, 250 g ai/ha; scale of 0 to 100 where 0 is no effect and 100 is complete control; 13 to 15 days
Outline: as §3

rice (Oryza sativa) = assay: Test C flooded paddy test plant response; conditions: Flood, 250 g ai/ha; scale of 0 to 100 where 0 is no effect and 100 is complete control; 13 to 15 days
Outline: as §3

[11] = system: small-flower umbrella sedge (Cyperus difformis); assay: Test C flooded paddy test plant response; conditions: Flood, 250 g ai/ha; scale of 0 to 100 where 0 is no effect and 100 is complete control; 13 to 15 days
Outline: as §3

[12] = 31 g ai/ha, Preemergence, 0 to 100 scale where 0 is no effect and 100 is complete control
[13] = 125 g ai/ha, postemergence, 0 to 100 scale, 0 no effect, 100 complete control
[14] = Postemergence, 31 g ai/ha, 0 to 100 scale (0 no effect, 100 complete control)
[15] = Preemergence, 125 g ai/ha, 0 to 100 scale (0 no effect, 100 complete control)
[16] = Postemergence, 500 g ai/ha, 0 to 100 scale (0 no effect, 100 complete control)
[17] = Preemergence, 500 g ai/ha, 0 to 100 scale where 0 is no effect and 100 is complete control

SMILES	Plant response rating, Ryegrass, Italian [1, 13]	Ryegrass, Italian plant response rating [1, 15]	Plant response rating, Barnyardgrass [2, 13]	Barnyardgrass plant response rating [2, 15]	Plant response rating, Corn (corn (Zea mays); [13])	Plant response rating, Foxtail, Giant [3, 13]	Foxtail, Giant plant response rating [3, 15]	Plant response rating, Kochia (kochia (Kochia scoparia); [13])	Kochia plant response rating (kochia (Kochia scoparia); [15])	Plant response rating, Pigweed [4, 13]	Pigweed plant response rating [4, 15]	Plant response rating, Ragweed [5, 13]	Ragweed plant response rating [5, 15]	Plant response rating, Wheat [6, 13]	Plant response rating, Blackgrass [7, 13]	Plant response rating, Galium [8, 13]	Barnyardgrass plant response rating [9]	Ducksalad plant response rating [10]	Rice plant response rating (rice (Oryza sativa))	Sedge, Umbrella plant response rating [11]	other results
Fc1cnc(Oc2ccccc2-c2cnccn2)nc1 [Compound 164]	0	0	0	0	0	0	0	0	0	30	30	30	0	0	0	30	0	0	0	0	Plant response rating, Ryegrass, Italian [1, 12]: 0; Plant response rating, Ryegrass, Italian [1, 14]: 0; Plant response rating, Barnyardgrass [2, 12]: 0; Plant response rating, Barnyardgrass [2, 14]: 0; Plant response rating, Corn (corn (Zea mays); [14]): 0; Plant response rating, Foxtail, Giant [3, 12]: 0; Plant response rating, Foxtail, Giant [3, 14]: 0; Plant response rating, Kochia (kochia (Kochia scoparia); [12]): 0; Plant response rating, Kochia (kochia (Kochia scoparia); [14]): 0; Plant response rating, Pigweed [4, 12]: 0; Plant response rating, Pigweed [4, 14]: 0; Plant response rating, Ragweed [5, 12]: 0; Plant response rating, Ragweed [5, 14]: 20; Plant response rating, Wheat [6, 14]: 0; Plant response rating, Blackgrass [7, 14]: 0; Plant response rating, Galium [8, 14]: 10
Fc1cccc(Oc2ncc(Cl)cn2)c1-c1cnccn1 [Compound 165]	0	0	20	10	0	20	10	40	60	50	80	60	50	0	30	40	0	0	0	0	Plant response rating, Ryegrass, Italian [1, 12]: 0; Plant response rating, Ryegrass, Italian [1, 14]: 0; Plant response rating, Barnyardgrass [2, 12]: 0; Plant response rating, Barnyardgrass [2, 14]: 0; Plant response rating, Corn (corn (Zea mays); [14]): 0; Plant response rating, Foxtail, Giant [3, 12]: 0; Plant response rating, Foxtail, Giant [3, 14]: 10; Plant response rating, Kochia (kochia (Kochia scoparia); [12]): 0; Plant response rating, Kochia (kochia (Kochia scoparia); [14]): 20; Plant response rating, Pigweed [4, 12]: 30; Plant response rating, Pigweed [4, 14]: 30; Plant response rating, Ragweed [5, 12]: 20; Plant response rating, Ragweed [5, 14]: 30; Plant response rating, Wheat [6, 14]: 0; Plant response rating, Blackgrass [7, 14]: 20; Plant response rating, Galium [8, 14]: 20
Fc1cnc(Oc2cccc(F)c2-c2cnccn2)nc1 [Compound 166]	0	0	0	0	10	0	0	0	0	30	60	30	20	0	0	30	0	0	0	0	Plant response rating, Ryegrass, Italian [1, 12]: 0; Plant response rating, Ryegrass, Italian [1, 14]: 0; Plant response rating, Barnyardgrass [2, 12]: 0; Plant response rating, Barnyardgrass [2, 14]: 0; Plant response rating, Corn (corn (Zea mays); [14]): 0; Plant response rating, Foxtail, Giant [3, 12]: 0; Plant response rating, Foxtail, Giant [3, 14]: 0; Plant response rating, Kochia (kochia (Kochia scoparia); [12]): 0; Plant response rating, Kochia (kochia (Kochia scoparia); [14]): 0; Plant response rating, Pigweed [4, 12]: 40; Plant response rating, Pigweed [4, 14]: 20; Plant response rating, Ragweed [5, 12]: 0; Plant response rating, Ragweed [5, 14]: 10; Plant response rating, Wheat [6, 14]: 0; Plant response rating, Blackgrass [7, 14]: 0; Plant response rating, Galium [8, 14]: 20
Cc1c(-c2ccccc2Oc2ncc(Cl)cn2)noc1C(F)(F)F [Compound 167]	0	0	0	0	0	0	0	10	0	10	0	0	0	10	0	10	0	0	0	0	Plant response rating, Ryegrass, Italian [1, 16]: 0; Plant response rating, Ryegrass, Italian [1, 17]: 0; Plant response rating, Barnyardgrass [2, 16]: 10; Plant response rating, Barnyardgrass [2, 17]: 10; Plant response rating, Corn (corn (Zea mays); [16]): 20; Plant response rating, Foxtail, Giant [3, 16]: 10; Plant response rating, Foxtail, Giant [3, 17]: 30; Plant response rating, Kochia (kochia (Kochia scoparia); [16]): 60; Plant response rating, Kochia (kochia (Kochia scoparia); [17]): 30; Plant response rating, Pigweed [4, 16]: 70; Plant response rating, Pigweed [4, 17]: 20; Plant response rating, Ragweed [5, 16]: 0; Plant response rating, Ragweed [5, 17]: 10; Plant response rating, Wheat [6, 16]: 20; Plant response rating, Blackgrass [7, 16]: 10; Plant response rating, Galium [8, 16]: 60
